Test results reported in patent US12415830B2, “Steroid compound, and use thereof and preparation method therefor” (Chengdu Kanghong Pharmaceutical Co Ltd, priority 2019, dated 2025).
Read-outs that look alike come from different tables or passages of the source.

Columns and labels:
GABAA1 (α1β2γ2) receptor = target: T1, GABAA1 (α1β2γ2) receptor (Homo sapiens, UniProt P14867+P47870); assay: Patch-clamp electrophysiology on recombinant GABAA1 receptor in HEK293 cells, with 3 μM GABA; assay type: cell-based; settings: for Emax at 0.1 µM: 0.1 μM compound together with 3 μmol GABA; for Emax at 0.1 µM / Emax at 1 µM: read-out: potency: ratio of the peak current on the GABAA1 receptor to the peak current in 100 μmol GABA; for Emax at 1 µM: 1 μM compound together with 3 μmol GABA
T1 construct: expressed in transfected cells
Description: (§1) The present invention applies the two subunits of the recombinant GABAA receptor: α1β2γ2 and α4β3δ to evaluate the potency of the exemplary compounds in vitro by patch-clamp electrophysiology.
(§2) Extracellular fluid: 140 mM NaCl, 5 mM CsCl, 2 mM CaCl2·2H2O, 1 mM MgCl2·6H2O, 5 mM HEPES, 10 mM D-Glucose, pH=7.4 (NaOH).
(§3) Intracellular fluid: 130 mM CsCl, 0.1 mM CaCl2·H2O, 2 mM MgCl2·6H2O, 1.1 mM EGTA, 5 mM Na2-ATP, 10 mM HEPES, pH=7.2 (CsOH).
The HEK293 cells line stably expressing GABAA (α1β2γ2) receptors was cultured in Dulbecco's Modified Eagle Medium (DMEM) supplemented with 10% fetal bovine serum, 800 μg/mL G418, 200 μg/mL Hygromycin B and 100 μg/mL Zeocin. Cells were grown in a humidified incubator at 37° C. with 5% carbon dioxide.
Before manual patch clamp test, the cells were detached using 0.25%-Trypsin-EDTA solution. Then 8×10^3 cells were plated onto coverslips, and cultured in a 24-well plate (final medium volume: 500 μL) and tested after 18 hours by patch clamp.
(§4) Glass pipette (BF 150-86-10, Sutter Instruments) was pulled using a micropipette puller (P97, Sutter Instruments). The glass pipette was manipulated using a micro-manipulator (MP285, Sutter Instruments) under the microscope (IX71, Olympus). After touching the cell, a slight suction was applied to achieve high seal resistance (GQ). Fast capacitance (in pF) compensation was made after achieving high seal, and the membrane was broken. Cell capacitance (in pF) compensation was made from whole-cell capacitance compensation after the whole cell mode was achieved. No leak subtraction was made.
(§5) The test and control solutions flowed into a recording chamber mounted on the stage of an inverted microscope via a gravity-fed solution delivery system. During the experiment, solutions were withdrawn from the recording chamber by vacuum aspiration. Each concentration was tested at multiple times. All tests were performed at room temperature.
(§6) Whole cell model recorded GABAA1 receptors current experimental protocol was indicated as follows: When sealing, cell was at a holding potential of −70 mV, with gap-free mode to record the peak current. The cell would be applied with 3 μM GABA to active current. After the test articles application for 30 s, each concentration of test articles was applied with 3 μM GABA followed by 2 minutes washout using extracellular solution. Finally, 100 μM GABA was used as a positive control. The data were collected by EPC-10 amplifier and stored in PatchMaster (HEKA) software.
(§7) The following criteria are used to determine whether the data is acceptable: • (1) Electrode resistance <5MΩ • (2) Seal resistance >1GΩ • (3) The start of access resistance <15 MΩ • (4) The end of access resistance <15 MΩ • (5) No obvious spontaneous current decay. • (6) No obvious current leakage when the membrane potential is-70 mv. 56.6 Data Analysis
In the detection of GABAA1, the currents of 3 μM GABA and different concentrations of test compounds were respectively normalized to the current of 100 μM GABA
[formula] and then the activation rate corresponding to each concentration was calculated.
[formula] and then the activation rate corresponding to each concentration was calculated. Means, Standard Deviation and Standard Error were calculated for each test group. EC50 value was calculated using nonlinear regression: Y=Bottom+(Top−Bottom)/(1+10^((Log EC50−X)×HillSlope))
To fit data to the concentration-response, EC50 was the concentration giving a half-maximum effect and Hillslope was the Hill coefficient. Curve-fitting and EC50 calculations were performed using Graphpad5.0 software.
Emax is defined as the ratio of the peak current generated on the GABAA1 receptor to the peak current generated only in 100 μmol of GABA and the ratio is multiplied by 100%. The peak current generated on the GABAA1 receptor is that the exemplary compounds act on the GABAA1 receptor together with 3 μmol GABA.

GABAA4 (α4β3δ) receptor = target: T2, GABAA4 (α4β3δ) receptor (Homo sapiens, UniProt P28472+P48169); assay: Patch-clamp electrophysiology, compound alone or with 10 nM GABA (Table 3); assay type: cell-based; settings: for Emax: relative to peak current in GABA only
T2 construct: expressed in transfected cells; host or cells: HEK293 (transient transfection, plasmids 1:1:1)
Description: as §1, §2, §3
HEK293 cell line was cultured in DMEM containing 10% fetal bovine serum and 5% carbon dioxide at 37° C.
Cell passage: The old medium was removed, and the cells were washed once with PBS. Then 1 mL 0.25%-Trypsin-EDTA solution was added to digest cells. The culture dish was incubated at 37° C. in pre-warmed incubator for 0.5 minutes. As soon as cells were detached, about 5 mL 37° C. pre-warmed complete medium was added. Cell aggregates were dissociated by gentle pipetting. The cell suspension was transferred into a sterile centrifuge tube and then the cell suspension was be spun at approximately 1000 rpm for 5 minutes. The cells were amplified or maintained by seeding 2.5×10^5 cells in a 6 cm dish (final medium volume: 5 mL). For transfection, 8×10^3 cells were plated onto coverslips, and cultured in a 24-well plate (final medium volume: […]).
Transfection: Second day, the transfection of GABAA4 (α4, β3, δ plasmid ratio 1:1:1) was performed. The X-tremeGENE HP DAN Transfection Reagents kit were used. The ratio of the plasmid and transfection reagent was 1 μg: 2 μL. The amount of plasmid in the 24-well plate was 0.5 μg per well, and the transfection reagent was 1 μL. The following specific steps were taken for preparing the 12 wells: The 600 μL Opti-MEM was added to a sterile centrifuge tube along with 6 μg of plasmid and was allowed to mix well; Then, the 12 μL of transfection reagent was added, mixed well following 15 min incubation at room temperature. The transfection complex was then inoculated into the cell, 50 μL per well, and the transfection complex was lightly stirred and mixed.
This mixture was changed on the third day, and the patch-clamp was performed on the fourth day.
as §4, §5
as §6, with “GABAA4” for “GABAA1”, “10 nM” for “3 μM”, “10” for “100”
as §7, with “56.6 Data Analysis” left out

[1] = with 10 nM GABA, read-out: Emax (with 10 nM GABA)
[2] = without GABA, read-out: Emax (without GABA)
[3] = with 10 nM GABA, read-out: EC50 (with 10 nM GABA)
[4] = without GABA, read-out: EC50 (without GABA)

T2 sequence (P48169 36-554): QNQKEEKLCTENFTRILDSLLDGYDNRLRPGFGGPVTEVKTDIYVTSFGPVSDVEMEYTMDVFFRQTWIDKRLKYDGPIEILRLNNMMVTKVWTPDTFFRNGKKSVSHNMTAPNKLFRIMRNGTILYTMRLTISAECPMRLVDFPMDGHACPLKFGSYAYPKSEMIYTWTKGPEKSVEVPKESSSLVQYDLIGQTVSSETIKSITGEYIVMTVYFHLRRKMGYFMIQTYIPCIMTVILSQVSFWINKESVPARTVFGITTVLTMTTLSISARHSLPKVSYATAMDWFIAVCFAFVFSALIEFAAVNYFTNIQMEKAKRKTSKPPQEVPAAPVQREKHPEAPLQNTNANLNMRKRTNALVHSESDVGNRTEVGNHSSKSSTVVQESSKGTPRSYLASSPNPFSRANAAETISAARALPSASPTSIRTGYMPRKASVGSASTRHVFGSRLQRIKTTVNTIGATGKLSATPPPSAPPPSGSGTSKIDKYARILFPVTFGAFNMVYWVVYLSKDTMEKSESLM
T2 sequence (P28472 26-473): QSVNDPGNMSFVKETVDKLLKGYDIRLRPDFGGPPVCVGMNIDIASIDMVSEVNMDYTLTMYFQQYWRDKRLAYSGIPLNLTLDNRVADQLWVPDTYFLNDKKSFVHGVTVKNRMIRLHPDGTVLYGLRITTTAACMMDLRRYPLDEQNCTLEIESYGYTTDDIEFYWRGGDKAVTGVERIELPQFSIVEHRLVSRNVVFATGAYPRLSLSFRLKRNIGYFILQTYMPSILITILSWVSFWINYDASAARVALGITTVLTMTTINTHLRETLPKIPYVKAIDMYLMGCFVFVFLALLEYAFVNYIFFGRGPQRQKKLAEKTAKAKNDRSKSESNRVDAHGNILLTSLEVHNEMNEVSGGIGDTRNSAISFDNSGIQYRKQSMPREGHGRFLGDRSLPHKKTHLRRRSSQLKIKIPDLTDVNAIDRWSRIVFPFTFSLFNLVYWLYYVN
T2 sequence (O14764 25-452 partner): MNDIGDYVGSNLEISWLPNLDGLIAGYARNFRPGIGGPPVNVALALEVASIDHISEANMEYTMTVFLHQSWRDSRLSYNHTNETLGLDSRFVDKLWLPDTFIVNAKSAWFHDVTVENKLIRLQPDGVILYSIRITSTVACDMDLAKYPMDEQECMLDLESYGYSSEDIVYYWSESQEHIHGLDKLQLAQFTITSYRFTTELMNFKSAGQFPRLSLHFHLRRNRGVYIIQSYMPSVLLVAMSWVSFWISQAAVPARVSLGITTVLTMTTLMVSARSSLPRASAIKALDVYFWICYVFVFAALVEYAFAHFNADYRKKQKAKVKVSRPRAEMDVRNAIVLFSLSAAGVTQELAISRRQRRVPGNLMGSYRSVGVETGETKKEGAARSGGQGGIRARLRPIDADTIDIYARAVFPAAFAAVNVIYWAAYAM
T1 sequence (P14867 28-456): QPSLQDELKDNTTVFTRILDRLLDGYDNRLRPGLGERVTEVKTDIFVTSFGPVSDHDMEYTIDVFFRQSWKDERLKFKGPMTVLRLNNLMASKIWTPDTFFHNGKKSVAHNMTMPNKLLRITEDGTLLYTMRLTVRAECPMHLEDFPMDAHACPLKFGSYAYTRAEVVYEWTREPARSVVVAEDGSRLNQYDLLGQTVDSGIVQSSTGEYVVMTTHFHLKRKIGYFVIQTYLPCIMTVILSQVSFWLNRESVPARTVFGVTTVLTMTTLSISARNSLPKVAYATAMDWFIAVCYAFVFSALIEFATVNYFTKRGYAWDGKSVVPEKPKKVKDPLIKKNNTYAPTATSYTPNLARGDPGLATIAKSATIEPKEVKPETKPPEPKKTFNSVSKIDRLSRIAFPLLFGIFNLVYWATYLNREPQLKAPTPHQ
T1 sequence (P47870 26-512): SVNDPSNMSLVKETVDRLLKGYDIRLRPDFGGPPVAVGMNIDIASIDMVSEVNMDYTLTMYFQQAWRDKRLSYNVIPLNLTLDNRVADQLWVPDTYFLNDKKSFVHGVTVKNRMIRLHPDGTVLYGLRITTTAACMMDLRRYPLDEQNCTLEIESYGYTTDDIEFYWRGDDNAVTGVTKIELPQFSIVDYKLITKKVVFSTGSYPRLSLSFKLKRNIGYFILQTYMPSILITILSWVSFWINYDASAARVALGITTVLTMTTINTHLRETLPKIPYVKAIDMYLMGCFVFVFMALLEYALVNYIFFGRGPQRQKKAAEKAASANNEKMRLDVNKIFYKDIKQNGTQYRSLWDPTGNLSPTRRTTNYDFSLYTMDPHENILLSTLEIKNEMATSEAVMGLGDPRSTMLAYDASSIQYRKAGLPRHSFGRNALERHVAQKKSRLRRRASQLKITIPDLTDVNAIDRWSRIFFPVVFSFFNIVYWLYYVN
T1 sequence (P18507 40-475 partner): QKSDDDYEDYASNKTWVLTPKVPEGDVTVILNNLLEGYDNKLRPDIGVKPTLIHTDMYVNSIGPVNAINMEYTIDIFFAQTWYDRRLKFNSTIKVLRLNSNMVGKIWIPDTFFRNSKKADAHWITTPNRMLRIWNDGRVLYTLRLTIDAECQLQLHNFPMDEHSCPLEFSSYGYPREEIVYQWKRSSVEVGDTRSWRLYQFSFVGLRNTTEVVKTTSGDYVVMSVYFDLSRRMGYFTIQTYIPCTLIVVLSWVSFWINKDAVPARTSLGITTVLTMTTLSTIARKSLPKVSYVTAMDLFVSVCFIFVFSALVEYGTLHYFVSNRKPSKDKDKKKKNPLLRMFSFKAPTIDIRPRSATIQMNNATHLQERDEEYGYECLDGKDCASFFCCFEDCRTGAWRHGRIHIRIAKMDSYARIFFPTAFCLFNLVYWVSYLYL

| SMILES | Emax at 0.1 µM (GABAA1 (α1β2γ2) receptor; HEK293) | Emax at 1 µM (GABAA1 (α1β2γ2) receptor; HEK293) | EC50 (GABAA4 (α4β3δ) receptor; EC50 (with 10 nM GABA), with 10 nM GABA) | EC50 (GABAA4 (α4β3δ) receptor; EC50 (without GABA), without GABA) | Emax (GABAA4 (α4β3δ) receptor; [1]) | Emax (GABAA4 (α4β3δ) receptor; [2]) | EC50 (GABAA4 (α4β3δ) receptor; [3]) | EC50 (GABAA4 (α4β3δ) receptor; [4]) | Emax (GABAA1 (α1β2γ2) receptor; HEK293, together with 3 μmol GABA, relative to peak current in 100 μmol GABA) | EC50 (GABAA1 (α1β2γ2) receptor; together with 3 μmol GABA) |
| --- | --- | --- | --- | --- | --- | --- | --- | --- | --- | --- |
| CC(=O)C1CCCC2[C@@H]3CC[C@H]4C[C@H](O)CC[C@]4(C)[C@H]3CC[C@]12C (stereo partly shown) [KH001] | 20 to 40% | 60 to 80% | 132 nM | 173 nM | 91.7% | 103% | – | – | – | – |
| C[C@@]1(O)CC[C@@]2(C)[C@@H](CC[C@@H]3[C@@H]2CC[C@]2(C)[C@@H](C(=O)Cn4nnc(-c5ccccc5)n4)CCC[C@@H]32)C1 [KH039] | 0 to 20% | 60 to 80% | – | – | 125% | 121% | > 4000 nM | > 4000 nM | – | – |
| C[C@@]1(O)CC[C@@]2(C)[C@@H](CC[C@@H]3[C@@H]2CC[C@]2(C)[C@@H](C(=O)COc4noc5ccccc45)CCC[C@@H]32)C1 [KH025] | 0 to 20% | 60 to 80% | – | – | 92.5% | 84.6% | 572 nM | 947 nM | 93.7% | 620 nM |
| C[C@@]1(O)CC[C@H]2[C@H](CC[C@@H]3[C@@H]2CC[C@]2(C)[C@@H](C(=O)COc4nc[nH]n4)CCC[C@@H]32)C1 [KH051] | 0 to 20% | 0 to 20% | – | – | – | – | – | – | – | – |
| C[C@]12CC[C@@H](O)C[C@@H]1CC[C@@H]1[C@@H]2CC[C@]2(C)[C@@H](C(=O)CSc3cccs3)CCC[C@@H]12 [KH016] | 0 to 20% | 40 to 60% | – | – | – | – | – | – | – | – |
| C[C@]12CC[C@@H](O)C[C@@H]1CC[C@@H]1[C@@H]2CC[C@]2(C)[C@@H](C(=O)CN3CC4(COC4)C3)CCC[C@@H]12 [KH020] | 0 to 20% | 0 to 20% | – | – | – | – | – | – | – | – |
| C[C@@]1(O)CC[C@@]2(C)[C@@H](CC[C@@H]3[C@@H]2CC[C@]2(C)[C@@H](C(=O)C(n4cc(C#N)cn4)n4cc(C#N)cn4)CCC[C@@H]32)C1 [KH027] | 0 to 20% | 0 to 20% | – | – | – | – | – | – | – | – |
